Literature values as cited in patent publication US20260232690A1, “Treatment of the Chronic Effects of Brain Injury Using Rho Kinase Inhibitors” (WOOLSEY PHARMACEUTICALS, INC., priority 2023, published 2026).

System: salt-loaded hypertensive stroke-prone rats

Cl.O=S(=O)(c1cccc2cnccc12)N1CCCNCC1 [Fasudil, 5-(1,4-Diazepane-1-sulfonyl) isoquinoline]
nephrosclerosis: attenuate nephrosclerosis | survival: improve survival
